Among the test systems are HT29 colon; SW-620 colon; U251 CNS; SNB-75 CNS; HOP-62 NSCLC; MDA-MB-231 breast; LOX IMVI melanoma; TK-10 renal; COLO 205 colon; SF-295 CNS; KM12 colon; HL-60(TB) leukemia.
What all share (assay): inhibition of tumour cell growth, NCI panel, 48 h

Molecules are shown by their SMILES.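 Tested at 5 concentrations; 48 h exposure; 96-well plates; endpoints linearly interpolated, else capped at highest concentration. GI50 marks 50% less growth. Definition used: TGI = concentration required for complete inhibition of growth.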

For `COc1cc(N=NN(C)C)c(C(C)c2c3cc(OC)c(OC)cc3cc[n+]2C)cc1OC` (centres undefined), the TGI with HT29 colon is above 100 µM; in the experiment with SW-620 colon, above 100 µM; in the experiment on U251 CNS, above 100 µM; in the experiment with SNB-75 CNS it was above 100 µM; in the experiment on HOP-62 NSCLC, above 100 µM; with MDA-MB-231 breast it was 77 µM. Moreover, the TGI with LOX IMVI melanoma was above 100 µM; in the experiment with TK-10 renal, 97.5 µM; in the experiment with COLO 205 colon, 34.4 µM; with SF-295 CNS, above 100 µM; in the experiment on KM12 colon it was 54.6 µM.

In the case of `O=C(NO)c1coc2ccccc2c1=O`, the TGI with HT29 colon, with SW-620 colon, in the experiment on U251 CNS, in the experiment on SNB-75 CNS, with HL-60(TB) leukemia and in the experiment with LOX IMVI melanoma was above 100 µM each time. Also, the TGI in the experiment with TK-10 renal, with COLO 205 colon, in the experiment with SF-295 CNS and in the experiment with KM12 colon was above 100 µM each time.

As for `CCOP(=O)(Nc1ccc(-c2ccccc2)cc1)OCC`, the TGI with HT29 colon, with U251 CNS, with SNB-75 CNS, with HOP-62 NSCLC, in the experiment with MDA-MB-231 breast and in the experiment on TK-10 renal was above 100 µM each time. Further, the TGI with COLO 205 colon, in the experiment with SF-295 CNS and with KM12 colon was above 100 µM each time.

For the molecule `CCC1CC2CN3CCc4c([nH]c5c(-c6c(OC)ccc7c8c([nH]c67)[C@]6(C(=O)OC)CC7CC(CC)C6N(CC8)C7)c(O)ccc45)[C@](C(=O)OC)(C2)C13` (some centres undefined), the TGI stood at 18.6 µM with HT29 colon; 25.6 µM with SW-620 colon; 25.7 µM in the experiment on U251 CNS; 48.8 µM with SNB-75 CNS; 28.5 µM in the experiment on HOP-62 NSCLC; 47.1 µM in the experiment with MDA-MB-231 breast. Besides, the TGI in the experiment on LOX IMVI melanoma was determined as 28 µM; in the experiment on TK-10 renal, 33.4 µM; in the experiment with COLO 205 colon, 24.7 µM; in the experiment on SF-295 CNS, 36.1 µM; in the experiment on KM12 colon, 32.3 µM.

Regarding `CC(=O)[O-].CC(=O)[O-].O=C(N/N=C/c1cc(Cl)cc(Cl)c1[OH2+])c1ccncc1.[Co+2]`, the TGI in the experiment with HT29 colon, with SW-620 colon, with SNB-75 CNS, with HL-60(TB) leukemia, with HOP-62 NSCLC and in the experiment with LOX IMVI melanoma was above 100 µM in each case. Further, the TGI with TK-10 renal, with COLO 205 colon, in the experiment on SF-295 CNS and in the experiment with KM12 colon was above 100 µM in each case.

As for `CC1(O)CC2C(CC1SCCO)C2(C)C` (centres undefined), the TGI in the experiment on HT29 colon, in the experiment with U251 CNS, with SNB-75 CNS, in the experiment with HL-60(TB) leukemia, in the experiment on TK-10 renal and in the experiment on COLO 205 colon was above 100 µM throughout. The TGI in the experiment on SF-295 CNS and in the experiment on KM12 colon was above 100 µM each time.

Regarding `Cc1cc2[nH]c3c(C#N)c(-c4ccccc4)c(N=Nc4cccc(C(F)(F)F)c4)c(=O)n3c2cc1C`, the TGI in the experiment on SW-620 colon, in the experiment with U251 CNS, in the experiment on SNB-75 CNS, in the experiment on HOP-62 NSCLC, in the experiment with MDA-MB-231 breast and in the experiment on LOX IMVI melanoma was above 100 µM throughout. In addition, the TGI in the experiment with TK-10 renal, in the experiment on COLO 205 colon, in the experiment with SF-295 CNS and with KM12 colon was above 100 µM throughout.

Consider `C/C(=N\Nc1ccc([N+](=O)[O-])cc1[N+](=O)[O-])c1ccc2ccccc2n1`, for which the TGI in the experiment with HT29 colon, in the experiment with SW-620 colon, in the experiment on U251 CNS, with SNB-75 CNS, in the experiment with MDA-MB-231 breast and with TK-10 renal was above 100 µM each time. Besides, the TGI in the experiment with COLO 205 colon, in the experiment with SF-295 CNS and with KM12 colon was above 100 µM each time.

Consider `CCOc1ccc2c(c1)/C(=C(\C(Cl)=C(Cl)Cl)[N+](=O)[O-])N2`, for which the TGI in the experiment on HT29 colon, in the experiment with SW-620 colon, with U251 CNS, with SNB-75 CNS, in the experiment with HOP-62 NSCLC and with MDA-MB-231 breast was above 100 µM throughout. Further, the TGI in the experiment with COLO 205 colon, in the experiment with SF-295 CNS and in the experiment on KM12 colon was above 100 µM throughout.

As for `Cc1c(-c2cc3n(n2)C(c2cccs2)C(C#N)=C(c2ccccc2)N3)c(=O)n(-c2ccccc2)n1C` (centres undefined), the TGI in the experiment on HT29 colon was above 100 µM; with SW-620 colon, above 100 µM; in the experiment with U251 CNS, above 90.8 µM; with SNB-75 CNS, above 100 µM; in the experiment on HL-60(TB) leukemia, above 100 µM; in the experiment with HOP-62 NSCLC it was above 100 µM. Also, the TGI with LOX IMVI melanoma, with COLO 205 colon, in the experiment on SF-295 CNS and with KM12 colon was above 100 µM in each case.

`CC(=O)c1ccc(Oc2ccc(/C(C)=N\N=C(N)N)cc2)cc1`: the TGI in the experiment with HT29 colon turned out to be 3.52 µM; with U251 CNS, 10 µM; in the experiment with SNB-75 CNS, 5.15 µM; in the experiment with HOP-62 NSCLC, 9.72 µM; in the experiment with LOX IMVI melanoma, 13.1 µM; in the experiment on TK-10 renal, 12.8 µM. Also, the figures for the TGI in the experiment on COLO 205 colon and in the experiment on SF-295 CNS were 3.26 µM and 6.18 µM, respectively.

In the case of `CC(C)(C)[Si](C)(C)OCCCC#CCO`, the TGI in the experiment with HT29 colon was above 100 µM; in the experiment with SW-620 colon, above 100 µM; in the experiment with U251 CNS, above 100 µM; in the experiment on SNB-75 CNS, above 100 µM; in the experiment on HL-60(TB) leukemia, 70.9 µM; in the experiment on LOX IMVI melanoma, above 100 µM. The TGI in the experiment with TK-10 renal, with COLO 205 colon, in the experiment on SF-295 CNS and in the experiment on KM12 colon was above 100 µM in each case.

As for `CC1C(c2ccc3c(c2)OCO3)c2cc3c(cc2OC1N1CCCC1)OCO3` (centres undefined), the TGI was above 100 µM in the experiment on HT29 colon; above 100 µM with SW-620 colon; 61.7 µM in the experiment on SNB-75 CNS; above 100 µM with HOP-62 NSCLC; above 100 µM in the experiment on LOX IMVI melanoma; above 100 µM in the experiment on TK-10 renal. For the same molecule, the TGI with COLO 205 colon, in the experiment with SF-295 CNS and with KM12 colon was above 100 µM throughout.

As for `CC1CCCC2=C1C(c1ccc(Cl)cc1)n1c(s/c(=C\c3ccc(Cl)cc3)c1=O)=N2` (centres undefined), the TGI in the experiment on HT29 colon, with SW-620 colon, in the experiment on U251 CNS, in the experiment on SNB-75 CNS, with HOP-62 NSCLC and in the experiment on MDA-MB-231 breast was above 100 µM each time. Besides, the TGI in the experiment with LOX IMVI melanoma, with TK-10 renal, in the experiment with COLO 205 colon and with KM12 colon was above 100 µM each time.

Turning to `CC(=O)O[C@H]1CC[C@]2(C)[C@H]3CC[C@@H]4[C@H]5[C@H](C(C)C)CC[C@]5(C(=O)OCC(CO)(CO)N=C(N)N)CC[C@@]4(C)[C@]3(C)CC[C@H]2C1(C)C`, the GI50 was 1.75 µM with HT29 colon; 1.57 µM in the experiment with SNB-75 CNS; 1.79 µM in the experiment with HL-60(TB) leukemia; 1.82 µM in the experiment on HOP-62 NSCLC; 1.67 µM in the experiment with TK-10 renal; 1.88 µM in the experiment with COLO 205 colon. In addition, the GI50 with SF-295 CNS is 1.86 µM; with KM12 colon it was 1.75 µM. The TGI in the experiment with HT29 colon amounted to 3.29 µM; with SNB-75 CNS, 3.23 µM; in the experiment on HL-60(TB) leukemia it was 4.26 µM; in the experiment with HOP-62 NSCLC it was 3.56 µM; in the experiment on TK-10 renal, 3.12 µM; with COLO 205 colon, 3.55 µM. Besides, the TGI in the experiment on SF-295 CNS amounted to 3.79 µM; in the experiment with KM12 colon, 3.36 µM.

`CCP(=O)(CC)C(Cl)(Cl)C(O)C(C)(C)C` (centres undefined): the TGI in the experiment on HT29 colon, with SW-620 colon, in the experiment with U251 CNS, in the experiment with SNB-75 CNS, in the experiment with HOP-62 NSCLC and in the experiment with MDA-MB-231 breast was above 100 µM each time. Also, the TGI in the experiment with LOX IMVI melanoma, in the experiment on TK-10 renal, in the experiment with COLO 205 colon and in the experiment with SF-295 CNS was above 100 µM each time.

`NC(=O)CCC(NCc1c2ccccc2[n+]([O-])c2ccccc12)C(=O)O` (centres undefined): the TGI with HT29 colon was above 100 µM; in the experiment with SW-620 colon, above 100 µM; in the experiment on U251 CNS, above 100 µM; with SNB-75 CNS it was above 100 µM; with HL-60(TB) leukemia it was 74.1 µM; in the experiment on HOP-62 NSCLC it was above 100 µM. Also, the TGI in the experiment on LOX IMVI melanoma, with TK-10 renal, in the experiment with COLO 205 colon, in the experiment on SF-295 CNS and with KM12 colon was above 100 µM in each case.

For the molecule `Cc1cccc(Nc2cn(COCc3ccccc3)c(=O)[nH]c2=O)c1`, the TGI in the experiment with HT29 colon is above 100 µM; with SW-620 colon it was above 100 µM; in the experiment with U251 CNS, above 100 µM; in the experiment on HL-60(TB) leukemia, above 100 µM; in the experiment with HOP-62 NSCLC, 86.3 µM; in the experiment with LOX IMVI melanoma it was above 100 µM. Further, the TGI in the experiment with COLO 205 colon, in the experiment with SF-295 CNS and with KM12 colon was above 100 µM throughout.

Take `C=C1c2c(cc3c(c2O)c(=O)c2ccccc2n3C)OC1(C)C`: the TGI in the experiment on HT29 colon is above 100 µM; in the experiment with SW-620 colon, above 100 µM; in the experiment with U251 CNS it was above 100 µM; with SNB-75 CNS, 42 µM; in the experiment on HL-60(TB) leukemia, above 100 µM; in the experiment with LOX IMVI melanoma, above 100 µM. Also, the TGI in the experiment with TK-10 renal, with COLO 205 colon and with SF-295 CNS was above 100 µM each time.
